# Results reported in US12702715B2, “Targeted RNA degradation allows precision repurposing of protein-targeted small molecule medicines to RNA” (University of Florida Research Foundation, Incorporated, priority 2020, dated 2026).
# Entries after “also recorded” stand apart in the source; their conditions may differ.
# Columns and labels:
# FLT3 = biological target: T1, FLT3 (Homo sapiens, UniProt P36888); assay: Cellular Chem-CLIP/C-Chem-CLIP to study occupancy of an RTK; format: cell-based; settings: 0.01-10 μM pre-treatment
# T1 construct: endogenous in cells; host or cells: MDA-MB-231
# T1 sequence (P36888 27-993): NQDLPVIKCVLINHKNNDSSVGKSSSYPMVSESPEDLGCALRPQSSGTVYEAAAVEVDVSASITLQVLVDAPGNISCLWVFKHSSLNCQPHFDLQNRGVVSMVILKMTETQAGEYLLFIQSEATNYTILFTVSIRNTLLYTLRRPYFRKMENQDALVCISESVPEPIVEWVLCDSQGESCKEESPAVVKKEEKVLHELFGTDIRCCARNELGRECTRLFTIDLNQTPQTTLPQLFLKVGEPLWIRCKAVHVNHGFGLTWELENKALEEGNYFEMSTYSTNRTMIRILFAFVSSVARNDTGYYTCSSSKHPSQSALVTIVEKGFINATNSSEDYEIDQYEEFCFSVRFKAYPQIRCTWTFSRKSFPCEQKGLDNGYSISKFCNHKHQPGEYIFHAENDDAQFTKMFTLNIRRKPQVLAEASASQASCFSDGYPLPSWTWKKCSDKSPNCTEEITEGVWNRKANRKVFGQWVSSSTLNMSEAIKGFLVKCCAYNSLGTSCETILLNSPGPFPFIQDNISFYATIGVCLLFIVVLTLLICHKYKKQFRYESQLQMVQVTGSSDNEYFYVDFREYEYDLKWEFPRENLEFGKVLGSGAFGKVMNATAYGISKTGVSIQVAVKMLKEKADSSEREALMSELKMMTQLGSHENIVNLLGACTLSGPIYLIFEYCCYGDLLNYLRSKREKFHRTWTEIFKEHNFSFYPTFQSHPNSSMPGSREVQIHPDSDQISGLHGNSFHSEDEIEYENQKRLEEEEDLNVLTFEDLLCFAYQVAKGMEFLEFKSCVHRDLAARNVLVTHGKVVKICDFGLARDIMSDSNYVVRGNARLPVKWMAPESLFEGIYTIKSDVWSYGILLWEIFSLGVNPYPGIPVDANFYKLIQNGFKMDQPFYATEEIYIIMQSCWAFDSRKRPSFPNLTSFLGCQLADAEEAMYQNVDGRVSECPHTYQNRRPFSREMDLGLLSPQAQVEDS
# Method: Cellular Chem-CLIP/C-Chem-CLIP to Study Occupancy of an RTK. Compound treatment and isolation of cells was completed as described for cellular occupancy studies of pre-miR-21. Total protein was extracted and concentration determined as described in the “Western Blotting” section. Approximately 1 mg of total protein was used for following pull-down experiments, using a protocol adapted from a previously published method 8. Protein cross-linked to the probe were clicked to disulfide biotin azide as described above except the amount of each reagents was doubled (20 μL/sample). Then, to the mixture was added ice-cold, 4:1 mixture of methanol/chloroform (2.5 mL) followed by 1 mL of ice-cold 1×DPBS. The mixture was centrifuged at 5000×g for 10 min at 4° C. to fractionate a protein interphase between organic and aqueous layers. […] The washed protein mixture was centrifuged at 5000×g for 10 min at 4° C. to pellet the protein. The pellet was dissolved in H2O, and to this solution was added 20 μLL streptavidin beads for 30 min at room temperature. The solution was removed, and the beads were washed once with 0.2% SDS in 1×DPBS, twice with detergent-free 1×DPBS and twice with nanopure water. After these washing steps, protein was cleaved as described above. The supernatant was collected, and protein concentration was determined with Pierce Micro BCA Protein Assay kit. […] Sample preparation was completed as described above for cellular Chem-CLIP studies. Western blotting was performed on total protein (10 μg) before or after pull-down, indicated as “Input” or “Output”, as described in Western Blotting.
# [1] = biological target: T2, RNase L / pre-miR-21 ternary complex (Homo sapiens, UniProt Q05823); assay: RNase L immunoprecipitation; format: cell-based; settings: 1 μM, MDA-MB-231
# T2 construct: endogenous in cells; host or cells: MDA-MB-231
# T2 sequence (Q05823 1-741): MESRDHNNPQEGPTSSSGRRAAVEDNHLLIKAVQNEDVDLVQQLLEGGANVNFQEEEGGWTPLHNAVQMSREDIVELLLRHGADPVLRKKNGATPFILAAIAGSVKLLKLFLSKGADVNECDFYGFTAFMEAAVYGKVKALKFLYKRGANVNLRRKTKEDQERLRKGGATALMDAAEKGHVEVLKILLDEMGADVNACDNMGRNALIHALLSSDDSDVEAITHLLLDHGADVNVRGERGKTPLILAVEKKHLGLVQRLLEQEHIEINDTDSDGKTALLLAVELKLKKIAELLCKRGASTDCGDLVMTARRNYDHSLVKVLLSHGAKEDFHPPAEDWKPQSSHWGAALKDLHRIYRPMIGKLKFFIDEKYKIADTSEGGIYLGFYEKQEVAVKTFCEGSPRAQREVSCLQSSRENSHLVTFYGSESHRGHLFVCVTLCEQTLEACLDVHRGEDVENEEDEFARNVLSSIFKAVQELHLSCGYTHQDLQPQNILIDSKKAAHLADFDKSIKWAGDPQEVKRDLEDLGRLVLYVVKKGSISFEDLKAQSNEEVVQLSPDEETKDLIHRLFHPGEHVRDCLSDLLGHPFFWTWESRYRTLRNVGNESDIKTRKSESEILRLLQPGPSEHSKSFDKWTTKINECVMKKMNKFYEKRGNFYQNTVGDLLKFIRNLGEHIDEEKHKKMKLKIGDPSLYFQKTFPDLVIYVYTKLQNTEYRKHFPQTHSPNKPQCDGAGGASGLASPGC
# Method: RNase L Immunoprecipitation. MDA-MB-231 cells were seed in 6-well plates and were treated with vehicle, 4 (1 μM) or 5 (1 μM) when the cells reached ~70% confluency. After 48 h, the cells were harvested and lysed in 100 μL of M-PER buffer containing protease inhibitor and RNaseOUT recombinant Ribonuclease Inhibitor (Invitrogen) on ice for 20 min. The lysate was centrifuged at 13,000×g for 15 min, and the supernatants were incubated with Dynabeads Protein A (Life Technologies) bound to RNase L mouse primary antibody or β-actin mouse primary antibody overnight at 4° C. After incubation, the beads were washed with 1×DPBS containing 0.02% (v/v) Tween-20, and RNA was extracted by using a miRNeasy Mini Kit (Qiagen) per the manufacturer's instructions. RT-qPCR was performed as described above. Relative RNA levels were determined by ΔΔCt method by normalizing to 18S rRNA levels. Normalized fold change was calculated as previously described^6.
# pre-miR-21 = assay: RT-qPCR of pre-miR-21 levels in MDA-MB-231 cells; format: cell-based, human; settings: MDA-MB-231, RT-qPCR
# Method: Cell Culture. Cells were cultured at 37° C. and 5% CO2. MDA-MB-231 cells (HTB-26, ATCC) were cultured in RMPI 1640 medium with L-glutamine & 25 mM HEPES supplemented with 1× Antibiotic/Antimycotic solution (Corning) and 10% FBS. MCF-10A cells (CRL-10317, ATCC) were cultured in 1×DMEM/F12 50/50 with L-glutamine & 15 mM HEPES (Corning) supplemented with 20% FBS, 1× Antibiotic/Antimycotic solution, 20 ng/mL human epidermal growth factor (Pepro Tech, Inc.), 10 μg/mL insulin (Sigma-Aldrich), and […] hydrocortisone (Pfaltz & Bauer). For compound treatment, compound stocks either in DMSO or water were diluted in growth medium and added to cells for the indicated time. Plasmid DNA to overexpress pre-miR-21 in pcDNA 3.1 (Addgene 21114) or a plasmid DNA encoding the pre-miR-21 mutant (custom purchased from GenScript USA, Inc.) was transfected with jetPRIME per the manufacturer's protocol. After transfection, the medium was replaced with growth medium containing the compound of interest, prepared as described above. The RNase L-targeting siRNA or a control siRNA was transfected with Lipofectamine RNAiMAX reagent (Invitrogen) per the manufacturer's protocol.
# RNA Isolation and Quantitative Real-Time PCR (RT-qPCR). After treatment, total RNA was extracted and purified by using the Zymo Quick-RNA mini prep kit per the manufacturer's protocol. Reverse Transcription (RT) for mature miRNAs as well as pri- and pre-miR-21 was completed on 200 ng of RNA by using a miScript 11 RT kit (QIAGEN) according to manufacturer's protocol. RT of mRNAs was performed by using QScript kit (Quanta Bio). An Applied Biosystems QS5 384-well PCR system was used to complete qPCR experiments using Power Sybr Green Mater Mix (Life Technologies) as described previously^6.
# [2] = test system: 3×2 RNA internal loop library (3×2 ILL); assay: AbsorbArray 2DCS selection with Inforna fitness analysis; format: binding, human; settings: Zobs>8
# Method: Construction of AbsorbArray Small Molecule Microarrays. Microarrays were constructed as previously reported^4. Briefly, a 1% agarose solution was poured onto a glass slide and dried on the benchtop. A 200 nL aliquot of 68 hit compounds (10 mM in DMSO) was pinned onto the array from a 384-well plate using Biomek NXP Laboratory Automation Workstation. Slides were then dried overnight to obtain a thin, invisible agarose layer. Slides were washed three times with 1×PBST^5 and then three times with nanopure water. Slides were dried completely in the air before RNA selection, completed by Two-Dimensional Combinatorial Screening (2DCS).
# RNA Selection and Screening by 2DCS. The 3×2 RNA ILL was 5′-end ^32P-labeled as previously described^7 and 2DCS selections were completed as previously described 4. All oligonucleotides were folded as described in the “Solution-based Dye Displacement Assay” section. Small molecule microarrays were pre-equilibrated by 3 mL 1× AB2 for 5 min. After removing the pre-equilibration buffer, 5′-end labeled folded 3×2 RNA ILL (~50,000 cpm) was added in 3 mL 1× AB2 containing 1 mM MgCl2 in the presence of competitor oligonucleotides (100 μM each). The oligonucleotide solution was evenly distributed across the microarray surface with a custom-cut piece of Parafilnm. After incubating for 30 min at room temperature, the Parafilm was removed, and the slide was washed gently by submersion in 1× AB2 for 30 s. This washing step was repeated three additional times, and the array was dried on the benchtop for 1 h. […] To harvest and collect the bound RNAs from the ILL, 1 μL of nanopure water was added to each spot. After 30 s, the water drop was absorbed into agarose gel, hydrating it such that it could be excised with a toothpick. The RNAs were eluted from the agarose by simple incubation with water, and then treated with RNase-free DNase I. A unique barcode for each small molecule was installed by reverse transcription (RT). Barcoded RNAs were amplified by PCR, purified, and identified by next-generation sequencing (NGS) using an Ion Proton deep sequencer using PI chips (60-80 million reads) as previously described^2.
SMILES,enrichment of pre-miR-21 in RNase L immunoprecipitation [1],number of binding RNA motifs [2],competition of FLT3 enrichment by probe 4 (FLT3),pre-miR-21 levels (pre-miR-21)
CCOC(=O)C1=C(Nc2ccccc2)S/C(=C\c2ccc(O)c(OCCOCCOCCOCCNC(=O)NCCN3CCN(c4ccc5[nH]c(-c6c(N)c7c(F)cccc7[nH]c6=O)nc5c4)CC3)c2)C1=O [Compound 7],not,–,competed off; also recorded: between that observed for 1 and 2,increasing pre-miR-21 levels
COc1ccc(NC(=O)[C@H](CCCCN)NC(=O)c2cc(NC(=O)[C@H](CCCCN)NC(=O)c3cc(NC(=O)[C@H](CCCCN)NC(=O)c4cc(NC(=O)[C@@H](N)CCCCN)ccc4OC)ccc3OC)ccc2OC)cc1C(N)=O [Delparantag],–,284,–,–
CCCNC(=O)NCCN1CCN(c2ccc3[nH]c(-c4c(N)c5c(F)cccc5[nH]c4=O)nc3c2)CC1 [Compound 8],–,–,competed off,–
CN1c2ccccc2Sc2ccc(CC(=O)O)cc21 [Metiazinic Acid],–,274,–,–

# Continued, in another order:
enrichment of pre-miR-21 in RNase L immunoprecipitation [1],number of binding RNA motifs [2],SMILES,competition of FLT3 enrichment by probe 4 (FLT3),pre-miR-21 levels (pre-miR-21)
not,–,CCOC(=O)C1=C(Nc2ccccc2)S/C(=C\c2ccc(OCCOCCOCCOCCNC(C)=O)c(O)c2)C1=O [Compound 6],–,had no effect
–,278,NCCCNc1ccc2c3c(nn2CCNCCO)-c2c(O)ccc(O)c2C(=O)c13 [Piroxantrone],–,–
